As for `CCCCCCCCOC(=O)C=CC(=O)OC(=C1C(=O)N(C(N)=O)c2cc(Cl)c(F)cc21)c1cccs1`, the melting point was in the range of 140 to 148 °C. The molecule `CC(C)Oc1n[nH]c(=O)n1C1CC1` returned a melting point of 146 to 147 °C. Molecule `COc1ccc(CNC(=O)C(=O)NCCc2ccccn2)c(OC)c1` had a melting point of 123 to 124 °C. `CN(C)Cc1nc(CSCCNC(=C[N+](=O)[O-])NC2CC2)cs1`: the melting point is 128 to 132 °C.

`Cn1cc(/C=C/C#N)c2ccccc21`: the melting point was 91 to 94 °C. `COc1cccc(C2(O)c3c(C)c(NC(=O)CC(C)(C)C)c(C)c(C)c3OC2(C)C)c1` (stereo not drawn) yielded a melting point of 154 to 155 °C. With `CN1CCN(Cc2ccc(COc3cccc4c3CN(C3CCC(=O)NC3=O)C4=O)cc2)CC1` (stereo not drawn), the melting point fell in the range of 188 to 190 °C. With `O=C(O)c1ccc(CNc2cc(Br)ccc2OCc2ccccc2)cc1`, the melting point lay in the range of 216 to 217 °C. The figure for `O=C(NCc1ccccc1)Nc1nnc(-c2ccc(CN3CCCCCC3)s2)s1` is 232 to 233 °C. Take `Cc1oc(-c2ccco2)nc1COc1ccc(CCCC2OC(=O)NC2=O)cc1O` (stereo not drawn): the melting point is 152 to 153 °C.

In the case of `CC(Cc1ccc(OCCCCO)cc1)NCC(O)c1cccc(C(F)(F)F)c1` (stereo not drawn), the melting point is 69 to 76 °C. Molecule `O=C(NS(=O)(=O)NC(=O)OCc1ccccc1)OCc1ccccc1` showed a melting point of 139 to 141 °C.

As for `CNC(=O)N1N=C(c2ccc([N+](=O)[O-])cc2)c2cc(Br)ccc2CC1C` (stereo not drawn), the melting point was in the range of 197 to 200 °C.

Regarding `COC(=O)CN1CC([N+](=O)[O-])=C(Cc2ccc(C(C)(C)C)cc2)C=C1C`, the melting point turned out to be 135 °C. The molecule `O=c1ccn(Cc2ccccc2)c(=O)[nH]1` showed a melting point of 168 to 170 °C. The figure for `CCCCCCCCCC(O)CNCCCCCCNCC(O)CCCCCCCCC` (stereo not drawn) is 123 to 129 °C; for `O=C(O)c1cn(C2CC2)c2c(F)c(N3CCC(n4nncc4C(=O)O)C3)c(F)cc2c1=O` (stereo not drawn) it is 214 °C; for `CCc1cn(C[C@@H](C)O)c2cc(Cl)c(F)cc12` it is 112 to 114 °C. Take `CN(C)CC=CC(=O)Nc1ccc2ncnc(Nc3cccc(Br)c3)c2c1`: the melting point fell in the range of 215 to 217 °C. For the molecule `S=C1NC2(CCCCC2)NC12CCCCC2`, the melting point was 229 °C. The molecule `COc1ccc(-c2cc3cc(F)c(F)cc3[nH]2)cc1NS(=O)(=O)c1cccc(C#N)c1` displayed a melting point of 239 to 242 °C. Take `CCc1cn(C2CC(OC(C)=O)C(CCC(=O)Cc3c(Cl)cccc3Cl)O2)c(=O)[nH]c1=O` (stereo not drawn): the melting point worked out at 186 °C. `Cc1ccc(S(=O)(=O)N2CCC[C@H]2C(=O)N[C@@H](Cc2ccc(OCCCN(C)Cc3ccccc3)cc2)C(=O)O)cc1` showed a melting point of 87 to 90 °C. As to `CC(=O)C(=Cc1cc(Cl)cc(Cl)c1)C(C)=O`, the melting point fell in the range of 85 to 87 °C. `NC(Cc1cc(CP(=O)(O)O)cc(-c2ccc(Cl)cc2)c1)C(=O)OCC=Cc1ccccc1` (stereo not drawn) came in with a melting point of 253 to 255 °C. Then `Oc1cccc2c1CCCC2N1CCCC1` (stereo not drawn), with 151 to 153 °C; and `O=C(c1cnc(N2CCCC2)c(OCC2CCCC2)n1)N1CCCCC1`, with 61 to 62 °C; and `COC(=O)CCc1ccc(-n2c(C)cn(-c3ccc(C#N)cc3)c2=O)cc1`, with 168 to 170 °C. The molecule `CC(C)c1c(CCC=O)c2c(c(C(C)C)c1OCc1ccccc1)CC(C)(C)O2` registered a melting point of 120 to 122 °C. The figure for `COC(=O)c1cc(NC(=O)Nc2ccc([N+](=O)[O-])cc2)cc(C(=O)OC)c1` is 193 to 195 °C; for `CN(CCc1ccccc1)C(=O)Cc1ccc(OCc2ccccc2)c(/C=C/C(=O)O)c1` it is 48 to 51 °C; for `CNc1cc(Cl)c(CO)c(Cl)c1` it is 108 to 111 °C. In turn, `COc1cc(NNc2nccc(Nc3ccc4nc(C)[nH]c4c3)n2)cc(OC)c1OC` displayed a melting point of 179 °C.

With `CCOC(=O)c1nnc2ccc(C#N)cc2c1O`, the melting point was in the range of 259 to 261 °C. Regarding `COCc1c[nH]c2c([N+](=O)[O-])cc(C)cc2c1=O`, the melting point is above 240 °C. Then `CC(C)(C)NC(=O)c1ncccc1CC(=O)C1CCC(C(=O)O)CC1` (stereo not drawn), with 160 °C; and `Cc1ccc(C)c(-c2cc(C#N)c(NC(=O)[C@@H]3C[C@@H]4CC[C@H]3C4)s2)c1`, with 168 to 169 °C. The molecule `COc1cccc(C(=O)c2ccc([N+](=O)[O-])c(C=O)c2)c1` displayed a melting point of 84 °C. In the case of `Cc1nc(CNC(=O)c2ccnc(N3CCN(Cc4ccc(F)cc4)C3=O)c2)cs1`, the melting point is 76 to 78 °C. `CCCCCCc1cc2c(cc1C(=O)Oc1ccc(C(=O)O)cn1)CCCCC2(C)C` displayed a melting point of 119 to 120 °C. As for `O=C(Oc1cc(F)ccc1[N+](=O)[O-])c1cc2ccccc2oc1=O`, the melting point was in the range of 219 to 223 °C. `O=Cc1c[nH]c2c1ccc1c3ccccc3[nH]c12`: the melting point was above 290 °C. For the molecule `CC1=CC(=O)C(O)=CC1=CC=Cc1ccccc1`, the melting point is 164 to 165 °C. `O=Cc1c(Cl)cc(CO)cc1Cl` showed a melting point of 109 to 110 °C. Then `O=c1oc2c(Cl)cccc2c(O)c1-c1ccccc1`, with 245 °C. Regarding `CC(C)C(=O)OC1(C(=O)CO)CCC2C3CC(C)C4=CC(=O)CCC4(C)C3C(O)CC21C` (stereo not drawn), the melting point amounted to 191 °C.

Consider `CC1=C(C#N)C(c2ccccc2C(F)(F)F)c2c(ccnc2OC(C)C)N1` (stereo not drawn), for which the melting point lay within 207 to 209 °C. The figure for `CCOc1c(CO)cnc2c1c(C)nn2CC` is 85 to 86 °C. In turn, `Cc1oc(-c2ccccc2)nc1COCc1cccc(COc2cc(Cl)ccc2C(=O)O)c1` displayed a melting point of 137 °C. Turning to `O=C(Cl)OCC1c2ccccc2Oc2ccccc21`, the melting point lay within 64 to 65 °C. On to `Cc1nc2ccccc2n2cnc(C(=O)OC(C)(C)C)c12`, for which the melting point lay in the range of 176 to 177 °C. Take `CCOC(=O)N1CCN(c2nc(N(C(C)=O)C3CC3)ccc2N)CC1`: the melting point was 149 to 150 °C. In turn, `COc1c(OC2CCC3(CC2)OCC(C)(C)CO3)ccnc1C` displayed a melting point of 90 °C.

`CCn1cc(C(=O)O)c(=O)c2c(F)c(F)c(N3CCNC(C)C3)c(F)c21` (stereo not drawn) came in with a melting point of 220 to 222 °C.

`CC1(C)CC(=C(c2ccc(O)cc2)c2ccc(CCCO)cc2)CC(C)(C)C1`: the melting point lay within 160 to 161 °C.

For the molecule `CC(=O)CCCCCCC(CC(C)C(O)C(N)CO)c1cccs1` (stereo not drawn), the melting point lay in the range of 96 to 99 °C. Turning to `CCOC(=O)Nc1ccc(OCc2nc3ccccc3s2)cc1`, the melting point lay in the range of 149 to 150 °C. With `O=C(O)c1cc(N2C(=O)C3=C(CCCC3)C2=O)ccc1O`, the melting point was 240 °C.

For `CSC1C(=O)Nc2c(C(=O)c3ccc(Cl)cc3)cccc21` (stereo not drawn), the melting point fell in the range of 186 to 188 °C. Consider `COc1ccc(NC(=O)c2ccc(N)cc2NC(=O)c2ccc(C(C)(C)C)cc2)cc1`, for which the melting point was in the range of 137 to 140 °C.

With `N#CCc1c(-c2ccccc2)sc2ccc(Cl)cc12`, the melting point was 158 to 160 °C.

`CC1(C)CNC(=O)c2c1ccc1nc(Nc3c(Cl)cccc3Cl)[nH]c21` gave a melting point of 287 to 290 °C.

Molecule `CCCCCc1cccc2c1C(=O)N(OC1C(O)C(CO)OC1n1cnc3c(N)ncnc31)C2=O` (stereo not drawn) had a melting point of 159 to 160 °C.

As usually defined, the melting point is the temperature, or range, at which the solid turns liquid.

The values above are taken from a melting point compilation (Tetko et al.; mined from patent text by program, amines drawn as free bases though some values may be those of a salt).
